Assay results from PMC11943016, “TBG096 Ameliorates Memory Deficiency in AD Mouse Model via Promoting Neurogenesis and Regulation of Hsc70/HK2/PKM2/LAMP2A Signaling Pathway” (International Journal of Molecular Sciences, 2025).

How the values were obtained:
[1] = test system: ICR mice; assay: Acute toxicity experiment in mice; type: in vivo
Protocol: In the acute toxicity experiment of mice, a total of 40 ICR male mice aged 8 weeks from Zhejiang Academy of Medical Sciences (Hangzhou, China) were used. A standard experimental scheme was adopted according to the requirements of Zhejiang University Animal Experiment Ethics Committee (animal use license number: SYXK(Zhe)2019-0002, permit number: ZJU20230219). The mice were randomly divided into the following groups: (i) control group, (ii) TBG096 100 mg/kg group, (iii) TBG096 300 mg/kg group, and (iv) TBG096 600 mg/kg group. Each group had 10 mice. Soybean oil was used as a vehicle to dissolve TBG096. The body weight, food intake, and water consumption of mice in each group were recorded every day for two weeks. Blood was collected for biochemical index analysis.

[2] = test system: BV-2 microglial cells; assay: Anti-inflammatory activity in LPS-treated BV-2 cells (Iba1 fluorescence); type: cell-based; settings: 24 h
Protocol: BV-2 cells were obtained from Nanjing CoBioer Biotechnology Ltd., Co., Nanjing, China, and cultured in RPMI 1640 medium (Roswell Park Memorial Institute 1640 medium, Gibco, Grand Island, NY, USA) supplemented with 10% FBS and 1% penicillin/streptomycin. The anti-inflammatory activity of samples in BV-2 cells was determined as follows. Approximately 5 × 10^4 cells were seeded in each well of a 24-well microplate and were cultured under a humidified atmosphere with 5% CO2 at 37 °C for 24 h. Then, the medium was replaced by 500 µL RPMI 1640 medium containing 0.5% DMSO or samples at different concentrations for 2 h, and 500 µL medium containing LPS (1 µg/mL) was added and incubated for 24 h. Next, the medium of each well was sucked out, and each well was washed with phosphate-buffered saline (PBS) three times and fixed with 4% paraformaldehyde (500 µL/well) for 20 min at room temperature. The fixative was discarded, washed with PBS, and blocked for 60 min. […] After that, the cell nucleus was stained with diluted DAPI (SouthernBiotech, Birmingham, AL, USA) for 10 min, and the fluorescence image of BV-2 cells was observed under the fluorescence inverted microscope. Three regions were randomly selected to be observed and recorded with pictures. Image J software version 1.8.0 (National Institutes of Health, Bethesda, MD, USA) was finally used to analyze the fluorescence density of BV-2 cells.

[3] = test system: Wnt gene family (Wnt10b, Wnt5a, and Wnt1); assay: Transcriptome sequencing and qRT-PCR of brain samples of HFD-induced AD mice; type: in vivo; settings: GSEA-GO, qRT-PCR confirmed Wnt10b and Wnt5a
Protocol: Total RNA was extracted and quantified from 50 mg of the cerebral cortex using TRIzol reagent (Invitrogen, Carlsbad, CA, USA) and NanoDrop (Thermo Fisher Scientific, Waltham, MA, USA), respectively. Subsequently, 2.5 µg of RNA from each sample was reverse-transcribed using a HiFi-MMLV cDNA kit (Cowin Biotechnology Company, Beijing, China). Transcripts were quantified by PCR analysis performed with a CFX 96 Touch (Bio-Rad, Hercules, CA, USA) and SYBR Premixed EX Taq (Takara, Otsu, Japan). PCR was performed under the following conditions: 95 °C for 2 min, followed by 40 cycles, 94 °C for 15 s, 60 °C for 25 s, and 72 °C for 10 s. All results were normalized to the level of 18S RNA, and the relative mRNA transcription levels were estimated by 2^−ΔΔCT. The number of animal samples in each group was five, and all samples were run in triplicate, and their average values were calculated. The mouse primers of Wnt10b (NM_011718.2), Wnt5a (NM_001256224.2), and 18S RNA (NR_003278.3) were synthesized by Sangon Biotech Co., Ltd. (Shanghai, China), and their sequences are as follows: Wnt10b-sense: 5′-[…]-3′; antisense: 5′-[…]-3′. Wnt5a-sense: 5′-[…]-3′; antisense: 5′-[…]-3′. 18S-sense: 5′-[…]-3; antisense: 5′-[…]-3′.
After extracting total RNA (5 µg) from cerebral cortex samples, mRNA was purified using Dynabeads Oligo(dT) (Thermo Fisher, Waltham, MA, USA), involving two purification steps. […]

O=C(SCCCCCCSCCCC(F)(F)F)c1cccc(O)c1O [TBG096]
acute toxicity in mice ([1]; mouse, in vivo): does not exhibit acute toxicity
body weight, food intake, water consumption ([1]; oral 100, 300, and 600 mg/kg, two weeks, mice): no significant differences
serum biochemical indices (AST, ALT, AST/ALT, ALB, DBIL) ([1]; oral 100, 300, and 600 mg/kg, vs control group, mice): no significant changes
LPS-induced overactivation of BV-2 cells [2]: dose-dependently inhibited
optimal concentration for inhibition of LPS-induced overactivation of BV-2 cells [2]: 0.3 µM
expression of the Wnt gene family (Wnt10b, Wnt5a, and Wnt1) [3]: enhancing the expression
